How the values were obtained:
Assay type in all cases: in vivo
[1] = tested on: velvetleaf (Abutilon theophrasti); assay: Test A pre-/postemergence: velvetleaf
How it was run: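 Plants in loam–sand blend were treated with test chemicals in non-phytotoxic solvent with surfactant, either as preemergence directed soil spray or postemergence at 2–10 cm, one- to two-leaf stage. After about ten days in greenhouse, injury was rated visually against untreated controls on a 0–100 scale (100 = complete control).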

rice (Oryza sativa) = assay: Test B flooded paddy: rice; conditions: Flood; 250 g ai/ha; applied to paddy water at 2-leaf stage; visually evaluated after 13 to 15 days
How it was run: (§1)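 Visual ratings on a 0–100 scale, where 0 means no effect and 100 means complete control, were assigned by comparison with controls 13 to 15 days after treatment. Compounds went into paddy water over 2-leaf plants flooded to 3 cm.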

[2] = tested on: barnyardgrass (Echinochloa crus-galli); assay: Test B flooded paddy: barnyardgrass; conditions: Flood; 250 g ai/ha; applied to paddy water at 2-leaf stage; visually evaluated after 13 to 15 days
How it was run: as §1

[3] = tested on: foxtail, green (green foxtail, Setaria viridis); assay: Test C pre-/postemergence: foxtail, green
How it was run: (§2)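 Preemergence on seeds in loam/sand, postemergence on 2–18 cm (1–4-leaf) plants in peat-based medium; compounds in non-phytotoxic solvent with surfactant. After 13–15 days in greenhouse, visual rating versus controls, 0 (no effect) to 100 (complete control).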

[4] = tested on: winter wheat (Triticum aestivum); assay: Test C pre-/postemergence: winter wheat
How it was run: as §2

wild oat (Avena fatua) = assay: Test C pre-/postemergence: wild oat
How it was run: as §2

[5] = tested on: galium (catchweed bedstraw, Galium aparine); assay: Test C pre-/postemergence: galium
How it was run: as §2

[6] = tested on: nightshade (eastern black nightshade, Solanum ptycanthum); assay: Test C pre-/postemergence: nightshade; conditions: Preemergence
How it was run: as §2

[7] = tested on: pigweed (Amaranthus retroflexus); assay: Test C pre-/postemergence: pigweed
How it was run: as §2

[8] = tested on: velvetleaf (Abutilon theophrasti); assay: Test C pre-/postemergence: velvetleaf
How it was run: as §2

[9] = Postemergence, 125 g ai/ha, 0 to 100 scale, 0 is no effect, 100 is complete control
[10] = Postemergence, 500 g ai/ha, visual rating on 0 to 100 scale (0 no effect, 100 complete control), approximately ten days
[11] = Postemergence, 31 g ai/ha, scale 0 to 100 (0 no effect, 100 complete control)
[12] = Postemergence, 62 g ai/ha, scale 0 to 100 (0 no effect, 100 complete control)
[13] = Postemergence, 125 g ai/ha, scale 0 to 100, 0 no effect, 100 complete control
[14] = Postemergence, 250 g ai/ha, scale 0 to 100
[15] = Preemergence, 31 g ai/ha, scale of 0 to 100, 0 is no effect, 100 is complete control
[16] = Preemergence, 62 g ai/ha, scale of 0 to 100, 0 is no effect, 100 is complete control
[17] = Preemergence, 125 g ai/ha, scale 0 to 100, 0 no effect, 100 complete control
[18] = Preemergence, 250 g ai/ha, scale 0 to 100, 0 no effect, 100 complete control
[19] = 31 g ai/ha, scale of 0 to 100, 0 is no effect, 100 is complete control
[20] = 62 g ai/ha, scale of 0 to 100, 0 is no effect, 100 is complete control
[21] = 125 g ai/ha, scale 0 to 100, 0 no effect, 100 complete control
[22] = 250 g ai/ha, scale 0 to 100, 0 no effect, 100 complete control

SMILES: Fc1ccc(-n2nc(Cc3ccnc(C(F)(F)F)c3)c(OC(F)F)n2)cc1 [Compound 25]
- Velvetleaf plant response rating [1, 9]: 80
- Velvetleaf plant response rating [1, 10]: 100
- Plant response rating, Velvetleaf ([1]; Preemergence, 125 g ai/ha, 0 to 100 scale (0 no effect, 100 complete control)): 20
- Plant response rating, Velvetleaf ([1]; Preemergence, 500 g ai/ha, 0 to 100 scale, 0 is no effect, 100 is complete control): 80
- Plant response rating, Rice (0 to 100 scale, 0 is no effect, 100 is complete control) (rice (Oryza sativa)): 35
- Plant response rating, Barnyardgrass (0 to 100 scale, 0 is no effect, 100 is complete control) [2]: 30
- Plant response rating, Foxtail, Green [3, 11]: 35
- Plant response rating, Foxtail, Green [3, 12]: 35
- Plant response rating, Foxtail, Green [3, 13]: 35
- Plant response rating, Foxtail, Green [3, 14]: 70
- Plant response rating, Foxtail, Green [3, 15]: 90
- Plant response rating, Foxtail, Green [3, 16]: 95
- Plant response rating, Foxtail, Green [3, 17]: 95
- Plant response rating, Foxtail, Green [3, 18]: 95
- Plant response rating, Wheat [4, 11]: 10
- Plant response rating, Wheat [4, 12]: 20
- Plant response rating, Wheat [4, 13]: 30
- Plant response rating, Wheat [4, 14]: 30
- Plant response rating, Wheat [4, 15]: 0
- Plant response rating, Wheat [4, 16]: 5
- Plant response rating, Wheat [4, 17]: 10
- Plant response rating, Wheat [4, 18]: 35
- Plant response rating, Oat, Wild (wild oat (Avena fatua); [11]): 5
- Plant response rating, Oat, Wild (wild oat (Avena fatua); [12]): 5
- Plant response rating, Oat, Wild (wild oat (Avena fatua); [13]): 30
- Plant response rating, Oat, Wild (wild oat (Avena fatua); [14]): 30
- Plant response rating, Oat, Wild (wild oat (Avena fatua); [15]): 20
- Plant response rating, Oat, Wild (wild oat (Avena fatua); [16]): 30
- Plant response rating, Oat, Wild (wild oat (Avena fatua); [17]): 80
- Plant response rating, Oat, Wild (wild oat (Avena fatua); [18]): 90
- Plant response rating, Galium [5, 11]: 50
- Plant response rating, Galium [5, 12]: 50
- Plant response rating, Galium [5, 13]: 55
- Plant response rating, Galium [5, 14]: 55
- Plant response rating, Galium [5, 15]: 0
- Plant response rating, Galium [5, 16]: 15
- Plant response rating, Galium [5, 17]: 80
- Plant response rating, Galium [5, 18]: 98
- Plant response rating, Nightshade [6, 19]: 10
- Plant response rating, Nightshade [6, 20]: 45
- Plant response rating, Nightshade [6, 21]: 95
- Plant response rating, Nightshade [6, 22]: 95
- Plant response rating, Pigweed [7, 11]: 85
- Plant response rating, Pigweed [7, 12]: 95
- Plant response rating, Pigweed [7, 13]: 95
- Plant response rating, Pigweed [7, 14]: 98
- Plant response rating, Pigweed [7, 15]: 100
- Plant response rating, Pigweed [7, 16]: 100
- Plant response rating, Pigweed [7, 17]: 100
- Plant response rating, Pigweed [7, 18]: 100
- Plant response rating, Velvetleaf [8, 11]: 15
- Plant response rating, Velvetleaf [8, 12]: 15
- Plant response rating, Velvetleaf [8, 13]: 45
- Plant response rating, Velvetleaf [8, 14]: 50
- Plant response rating, Velvetleaf [8, 15]: 0
- Plant response rating, Velvetleaf [8, 16]: 5
- Plant response rating, Velvetleaf [8, 17]: 15
- Plant response rating, Velvetleaf [8, 18]: 70

SMILES: COc1nn(-c2ccc(C(F)(F)F)cc2)nc1Cc1ccnc(C(F)F)c1 [Compound 138]
- Plant response rating, Velvetleaf [1, 9]: 100
- Velvetleaf plant response rating [1, 10]: 100
- Plant response rating, Velvetleaf ([1]; Preemergence, 125 g ai/ha, 0 to 100 scale where 0 is no effect and 100 is complete control): 70
- Plant response rating, Velvetleaf ([1]; Preemergence, 500 g ai/ha, 0 to 100 scale (0 no effect, 100 complete control)): 100
- Plant response rating, Rice (0 to 100 scale, 0 is no effect, 100 is complete control) (rice (Oryza sativa)): 50
- Plant response rating, Barnyardgrass (0 to 100 scale, 0 is no effect, 100 is complete control) [2]: 80
- Plant response rating, Foxtail, Green [3, 11]: 35
- Plant response rating, Foxtail, Green [3, 12]: 85
- Plant response rating, Foxtail, Green [3, 13]: 90
- Plant response rating, Foxtail, Green [3, 14]: 90
- Plant response rating, Foxtail, Green [3, 15]: 90
- Plant response rating, Foxtail, Green [3, 16]: 95
- Plant response rating, Foxtail, Green [3, 17]: 95
- Plant response rating, Foxtail, Green [3, 18]: 95
- Plant response rating, Wheat [4, 11]: 10
- Plant response rating, Wheat [4, 12]: 10
- Plant response rating, Wheat [4, 13]: 35
- Plant response rating, Wheat [4, 14]: 35
- Plant response rating, Wheat [4, 16]: 5
- Plant response rating, Wheat [4, 17]: 10
- Plant response rating, Wheat [4, 18]: 50
- Plant response rating, Oat, Wild (wild oat (Avena fatua); [11]): 55
- Plant response rating, Oat, Wild (wild oat (Avena fatua); [12]): 60
- Plant response rating, Oat, Wild (wild oat (Avena fatua); [13]): 80
- Plant response rating, Oat, Wild (wild oat (Avena fatua); [14]): 98
- Plant response rating, Oat, Wild (wild oat (Avena fatua); [15]): 80
- Plant response rating, Oat, Wild (wild oat (Avena fatua); [16]): 85
- Plant response rating, Oat, Wild (wild oat (Avena fatua); [17]): 95
- Plant response rating, Oat, Wild (wild oat (Avena fatua); [18]): 95
- Plant response rating, Galium [5, 11]: 85
- Plant response rating, Galium [5, 12]: 90
- Plant response rating, Galium [5, 14]: 90
- Plant response rating, Galium [5, 15]: 95
- Plant response rating, Galium [5, 16]: 100
- Plant response rating, Galium [5, 17]: 100
- Plant response rating, Galium [5, 18]: 100
- Plant response rating, Nightshade [6, 19]: 90
- Plant response rating, Nightshade [6, 20]: 95
- Plant response rating, Nightshade [6, 21]: 98
- Plant response rating, Nightshade [6, 22]: 98
- Plant response rating, Pigweed [7, 11]: 98
- Plant response rating, Pigweed [7, 12]: 98
- Plant response rating, Pigweed [7, 13]: 98
- Plant response rating, Pigweed [7, 14]: 100
- Plant response rating, Pigweed [7, 15]: 98
- Plant response rating, Pigweed [7, 16]: 100
- Plant response rating, Pigweed [7, 17]: 100
- Plant response rating, Pigweed [7, 18]: 100
- Plant response rating, Velvetleaf [8, 11]: 50
- Plant response rating, Velvetleaf [8, 12]: 75
- Plant response rating, Velvetleaf [8, 13]: 80
- Plant response rating, Velvetleaf [8, 14]: 90
- Plant response rating, Velvetleaf [8, 15]: 5
- Plant response rating, Velvetleaf [8, 17]: 55
- Plant response rating, Velvetleaf [8, 18]: 98
